{
  "source": "patent US11819561B2",
  "about": "“Oral care compositions” (Colgate-Palmolive Company, priority 2020, dated 2023)",
  "key": {"bacteria in saliva": {"tested_on": "bacteria in saliva", "test": "Alamar blue test for antimicrobial activity", "assay_type": "cell-based", "method": "Antimicrobial activity of the formulations is tested to determine whether the chlorhexidine is fully active. The Alamar blue test for antimicrobial activity is conducted according to standard methodology. Bacteria inoculum is prepared by diluting fresh saliva 2× with deionized water, followed by centrifugation at 8000 G/25° C. for 10 min, and decanting the upper clear liquid into a glass jar. The negative control (A) is distilled water. The positive control (B) is 2 wt. % chlorhexidine gluconate solution. The APG control (C) is a 10 wt. % decyl glucoside solution. The two test solutions are: (D) 2 wt. % chlorhexidine gluconate with 10 wt. % decyl glucoside; and (E) 2 wt. % chlorhexidine gluconate with 10 wt. % decyl glucoside solution, with 14% w/w STPP added. Each of the test solutions is combined with saliva in a weight ratio of 1:10 (solution to saliva). The pH of each mixture is adjusted to 5.5-7 by adding citric acid. The mixtures are vortexed for 1 minute, and incubated at 37° C. for 30 minutes. Subsequent addition of 200 μL of Alamar Blue dye immediately produced blue color in all samples and pictures were taken for comparison at different time intervals (0 hours, 24 hours, 48 hours) to show the evolution of color development. A blue color indicates bacterial kill in saliva and no bacterial growth, while a pink color indicates viable bacteria are still present. […]"}, "[1]": {"test": "Visual observation of formulation clarity and precipitation", "assay_type": "physicochemical", "conditions": "Example 4, other cationic surfactants", "method": "For the following experiments, a 0.2 wt. % aqueous solution of chlorhexidine gluconate, and a 10.0 wt. % aqueous solution of decyl glucoside (“APG”) are prepared. The pH of the decyl glucoside solution is adjusted to 5.5-7.0 using citric acid. For each formulation, the appropriate amount of the decyl glucoside solution is added to appropriate amounts of the chlorhexidine stock solution. STPP is then added to each formulation, and the mixture is agitated by a bath sonicator until no large solids remained. Additional citric acid is added to adjust the pH to 5.5-7.0. The formulations are then agitated for an additional five minutes, then allowed to equilibrate for 30 minutes before observation and transmittance measurements. For the following experiments, a 0.2 wt. % aqueous solution of chlorhexidine gluconate, and a 2.0 wt. % aqueous solution of CAPB are prepared. STPP is added to the chlorhexidine solution to provide 1.6 wt. % STPP. For each formulation, the appropriate amount of the CAPB solution is added to appropriate amounts of the chlorhexidine/STPP stock solution. The mixture is agitated by a bath sonicator, and then additional citric acid is added to adjust the pH to 6.12-6.19. The formulations are then agitated for an additional five minutes, then allowed to equilibrate for 18 hours before observation. […]"}},
  "data": [
    {"compound": "CCCCCCCCCCO[C@@H]1O[C@H](CO)[C@@H](O)[C@H](O)[C@H]1O", "note": "[Sample (C) (APG contr), decyl glucoside]", "values": [
      {"measurement": "Alamar Blue color change", "setting": "bacteria in saliva; Example 1 (APG)", "value": "color change from blue to pink after two days"}
    ]},
    {"compound": "benzalkonium chloride", "values": [
      {"measurement": "Stabilization effect on CHX/STPP", "setting": "[1]", "value": "stabilization effect was not observed"}
    ]},
    {"compound": "cocamidopropyl betaine [Sample (C) (CAPB contr)]", "values": [
      {"measurement": "Alamar Blue color change", "setting": "bacteria in saliva; Example 2 (CAPB)", "value": "color change from blue to pink after two days"}
    ]}
  ]
}
